Molecules are shown by their SMILES.
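Note: fluorogenic LRSR-AMC substrate cleavage by MALT1, 50 min compound preincubation then 4 h reaction at RT, 11-point dilution from 30 µM, scaled between enzyme-free and untreated enzyme controls.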

The target in this assay is T1, full-length MALT1 protein (Strep-MALT1(1-824)-His) (Homo sapiens, UniProt Q9UDY8).
T1 sequence (Q9UDY8 1-824): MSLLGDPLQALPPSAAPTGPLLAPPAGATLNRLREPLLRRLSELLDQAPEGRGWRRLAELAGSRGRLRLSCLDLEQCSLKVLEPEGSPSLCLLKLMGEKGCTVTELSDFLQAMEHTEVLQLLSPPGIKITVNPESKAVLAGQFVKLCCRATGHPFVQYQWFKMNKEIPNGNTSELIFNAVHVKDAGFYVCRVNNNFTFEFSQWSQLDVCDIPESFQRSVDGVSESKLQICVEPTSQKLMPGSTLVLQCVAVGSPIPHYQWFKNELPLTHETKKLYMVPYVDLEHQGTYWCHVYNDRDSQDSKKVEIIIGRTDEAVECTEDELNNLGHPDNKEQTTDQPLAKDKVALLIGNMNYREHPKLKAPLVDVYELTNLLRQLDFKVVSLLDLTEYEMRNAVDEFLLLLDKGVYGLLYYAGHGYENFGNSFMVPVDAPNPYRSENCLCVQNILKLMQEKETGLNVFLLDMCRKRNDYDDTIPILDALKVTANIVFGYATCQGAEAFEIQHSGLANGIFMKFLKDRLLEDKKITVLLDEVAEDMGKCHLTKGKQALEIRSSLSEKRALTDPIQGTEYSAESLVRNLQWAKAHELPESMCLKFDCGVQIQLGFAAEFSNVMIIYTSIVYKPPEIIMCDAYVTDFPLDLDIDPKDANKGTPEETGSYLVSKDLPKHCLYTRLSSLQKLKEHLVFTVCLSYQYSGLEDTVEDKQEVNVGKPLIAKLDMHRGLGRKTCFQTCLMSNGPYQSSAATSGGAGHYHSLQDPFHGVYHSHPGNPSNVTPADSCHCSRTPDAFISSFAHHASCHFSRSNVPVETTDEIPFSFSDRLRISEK
Nature of the assay: biochemical.
Protocol: MALT1 protease activity was assessed in an in vitro assay using a tetrapeptide as substrate and full-length MALT1 protein (Strep-MALT1(1-824)-His) purified from baculovirus-infected insect cells. The tetrapeptide LRSR is coupled to AMC (7-amino-4-methylcoumarin) and provides a quenched, fluorescent substrate for the MALT1 protease (SM Biochemicals). Cleavage of AMC from the Arginine residue results in an increase in coumarin fluorescence measured at 460 nm (excitation 355 nm). […] Test compounds were spotted at 50 nL in 100% DMSO per well of a black 384-Proxiplate (Perkin Elmer). Test compound concentrations ranged from 30 μM to 0.5 nM using 11 dilution steps (1:3). Background signal was measured from control wells containing assay buffer without enzyme which functions as low control (LC). High control (HC) values were generated using the reaction with enzyme but no compound treatment. Compounds were pre-incubated with MALT1 enzyme for 50 minutes at RT. Substrate was added subsequently and fluorescence was measured in Labsystems fluoroskan at excitation 355 nm and emission 460 nm to determine time 0. The reaction was subsequently incubated for 4 h at RT and fluorescence was measured. […] The enzyme reaction was linear during the 4 h incubation period.
IC50 values were calculated using the following formula (Z prime should be >0.5):
From this an IC50 value (inhibitory concentration causing 50% inhibition) can be obtained. An estimate of the slope of the plot in terms of the Hill coefficient was also obtained.
With y=estimated response • UB=upper bound • LB=lower bound • h=hill
Turning to `O=C(Nc1cnc(-n2nccn2)c(Cl)c1)c1cnn(-c2ncc(F)cc2Cl)c1C(F)(F)F` [Cpd 105, 1-(3-chloro-5-fluoropyridin-2-yl)-N-(5-chloro-6-(2H-1,2,3-triazol-2-yl)pyridin-3-yl)-5-(trifluoromethyl)-1H-pyrazole-4-carboxamide], the IC50 is 537 nM.
`O=C(Nc1cnc(-n2nccn2)c(Cl)c1)c1cnn(-c2ccc(F)c(Cl)c2)c1C(F)(F)F` [Cpd 108, 1-(3-chloro-4-fluorophenyl)-N-(5-chloro-6-(2H-1,2,3-triazol-2-yl)pyridin-3-yl)-5-(trifluoromethyl)-1H-pyrazole-4-carboxamide] had an IC50 of 776 nM.
In the case of `N#Cc1cc(NC(=O)c2cnn(-c3ccc(F)c(Cl)c3)c2C(F)(F)F)cnc1-n1nccn1` [Cpd 109, 1-(3-chloro-4-fluorophenyl)-N-(5-cyano-6-(2H-1,2,3-triazol-2-yl)pyridin-3-yl)-5-(trifluoromethyl)-1H-pyrazole-4-carboxamide] it was 427 nM; in that of `N#Cc1ccc(-n2ncc(C(=O)Nc3cnc(-n4nccn4)c(Cl)c3)c2C(F)(F)F)c(Cl)c1` [Cpd 110, 1-(2-chloro-4-cyanophenyl)-N-(5-chloro-6-(2H-1,2,3-triazol-2-yl)pyridin-3-yl)-5-(trifluoromethyl)-1H-pyrazole-4-carboxamide], 123 nM.
In the case of `O=C(Nc1cnc(-n2nccn2)c(Cl)c1)c1cnn(-c2ccc(F)cc2C(F)(F)F)c1C(F)(F)F` [Cpd 114, N-(5-chloro-6-(2H-1,2,3-triazol-2-yl)pyridin-3-yl)-1-(4-fluoro-2-(trifluoromethyl)phenyl)-5-(trifluoromethyl)-1H-pyrazole-4-carboxamide] it was 1000 nM.
As for `N#Cc1cc(NC(=O)c2cnn(-c3ccc(F)cc3C(F)(F)F)c2C(F)(F)F)cnc1-n1nccn1` [Cpd 115, N-(5-cyano-6-(2H-1,2,3-triazol-2-yl)pyridin-3-yl)-1-(4-fluoro-2-(trifluoromethyl)phenyl)-5-(trifluoromethyl)-1H-pyrazole-4-carboxamide], the IC50 turned out to be 363 nM.
In the case of `COC(C)c1ccccc1-n1ncc(C(=O)Nc2cnc(-n3nccn3)c(Cl)c2)c1C(F)(F)F` (centres unmarked) [Cpd 118, N-(5-Chloro-6-(2H-1,2,3-triazol-2-yl)pyridin-3-yl)-1-(2-(1-methoxyethyl)phenyl)-5-(trifluoromethyl)-1H-pyrazole-4-carboxamide] it was 2950 nM; in that of `O=C(Nc1cnc(-n2nccn2)c(Cl)c1)c1cnn(-c2ccc(F)nc2)c1C(F)(F)F` [Cpd 121, N-(5-chloro-6-(2H-1,2,3-triazol-2-yl)pyridin-3-yl)-1-(6-fluoropyridin-3-yl)-5-(trifluoromethyl)-1H-pyrazole-4-carboxamide], 1170 nM.
With `CNc1ccc(-n2ncc(C(=O)Nc3cnc(-n4nccn4)c(Cl)c3)c2C(F)(F)F)cn1` [Cpd 122, N-(5-chloro-6-(2H-1,2,3-triazol-2-yl)pyridin-3-yl)-1-(6-(methylamino)pyridin-3-yl)-5-(trifluoromethyl)-1H-pyrazole-4-carboxamide], the IC50 was 1320 nM.
For `N#Cc1cc(NC(=O)c2cnn(-c3ccc(F)nc3)c2C(F)(F)F)cnc1-n1nccn1` [Cpd 123, N-(5-cyano-6-(2H-1,2,3-triazol-2-yl)pyridin-3-yl)-1-(6-(fluoro)pyridin-3-yl)-5-(trifluoromethyl)-1H-pyrazole-4-carboxamide], inhibition was half-maximal at 794 nM (IC50). Compared with the last compound, the IC50 is about 1.7-fold lower.
Compound `CNc1ccc(-n2ncc(C(=O)Nc3cnc(-n4nccn4)c(C#N)c3)c2C(F)(F)F)cn1` [Cpd 124, N-(5-cyano-6-(2H-1,2,3-triazol-2-yl)pyridin-3-yl)-1-(6-(methylamino)pyridin-3-yl)-5-(trifluoromethyl)-1H-pyrazole-4-carboxamide] displayed an IC50 of 1200 nM.
In the case of `Nc1ccc(-n2ncc(C(=O)Nc3cnc(-n4nccn4)c(Cl)c3)c2C(F)(F)F)cn1` [Cpd 125, 1-(6-aminopyridin-3-yl)-N-(5-chloro-6-(2H-1,2,3-triazol-2-yl)pyridin-3-yl)-5-(trifluoromethyl)-1H-pyrazole-4-carboxamide] it was 1910 nM; in that of `CN1CCCc2c1cccc2-n1ncc(C(=O)Nc2cnc(-n3nccn3)c(C#N)c2)c1C(F)(F)F` [Cpd 127, N-(5-cyano-6-(2H-1,2,3-triazol-2-yl)pyridin-3-yl)-1-(1-methyl-1,2,3,4-tetrahydroquinolin-5-yl)-5-(trifluoromethyl)-1H-pyrazole-4-carboxamide], 372 nM.
In the case of `N#Cc1cc(NC(=O)c2cnn(-c3cccc(N)n3)c2C(F)(F)F)cnc1-n1nccn1` [Cpd 134, 1-(6-aminopyridin-2-yl)-N-(5-cyano-6-(2H-1,2,3-triazol-2-yl)pyridin-3-yl)-5-(trifluoromethyl)-1H-pyrazole-4-carboxamide] it was 263 nM.
`N#Cc1cc(F)ccc1-n1ncc(C(=O)Nc2cnc(-n3nccn3)c(C#N)c2)c1C(F)(F)F` [Cpd 135, 1-(2-cyano-4-fluorophenyl)-N-(5-cyano-6-(2H-1,2,3-triazol-2-yl)pyridin-3-yl)-5-(trifluoromethyl)-1H-pyrazole-4-carboxamide] returned an IC50 of 525 nM.
`N#Cc1cc(F)ccc1-n1ncc(C(=O)Nc2cnc(-n3nccn3)c(Cl)c2)c1C(F)(F)F` [Cpd 136, N-(5-chloro-6-(2H-1,2,3-triazol-2-yl)pyridin-3-yl)-1-(2-cyano-4-fluorophenyl)-5-(trifluoromethyl)-1H-pyrazole-4-carboxamide] returned an IC50 of 759 nM.
For `CS(=O)(=O)c1ccccc1-n1ncc(C(=O)Nc2cnc(-n3nccn3)c(Cl)c2)c1C(F)(F)F` [Cpd 138, N-(5-chloro-6-(2H-1,2,3-triazol-2-yl)pyridin-3-yl)-1-(2-(methylsulfonyl)phenyl)-5-(trifluoromethyl)-1H-pyrazole-4-carboxamide], half-maximal inhibition (IC50) was put at 5490 nM. This IC50 is about 7.2-fold higher than that of the compound before.
With `O=C(Nc1cnc(-n2nccn2)c(Cl)c1)c1cnn(-c2ccc(F)c(N3CC(O)C3)n2)c1C(F)(F)F` [Cpd 151, N-(5-chloro-6-(2H-1,2,3-triazol-2-yl)pyridin-3-yl)-1-(5-fluoro-6-(3-hydroxyazetidin-1-yl)pyridin-2-yl)-5-(trifluoromethyl)-1H-pyrazole-4-carboxamide], half-maximal inhibition (IC50) was put at 2400 nM.
In the case of `N#Cc1cc(NC(=O)c2cnn(-c3ccc(F)c(N4CC(O)C4)n3)c2C(F)(F)F)cnc1-n1nccn1` [Cpd 152, N-(5-cyano-6-(2H-1,2,3-triazol-2-yl)pyridin-3-yl)-1-(5-fluoro-6-(3-hydroxyazetidin-1-yl)pyridin-2-yl)-5-(trifluoromethyl)-1H-pyrazole-4-carboxamide] it was 832 nM; in that of `Cc1c[n+]([O-])ccc1-n1ncc(C(=O)Nc2cnc(-n3nccn3)c(Cl)c2)c1C(F)(F)F` [Cpd 153, 4-(4-((5-chloro-6-(2H-1,2,3-triazol-2-yl)pyridin-3-yl)carbamoyl)-5-(trifluoromethyl)-1H-pyrazol-1-yl)-3-methylpyridine 1-oxide], 4900 nM.
In the case of `Cc1cnc(Cl)cc1-n1ncc(C(=O)Nc2cnc(-n3nccn3)c(Cl)c2)c1C(F)(F)F` [Cpd 154, 1-(2-chloro-5-methyl-4-pyridyl)-N-[5-chloro-6-(triazol-2-yl)-3-pyridyl]-5-(trifluoromethyl)pyrazole-4-carboxamide] it was 955 nM; in that of `Cc1c(-n2ncc(C(=O)Nc3cnc(-n4nccn4)c(Cl)c3)c2C(F)(F)F)ccnc1Cl` [Cpd 155, 1-(2-chloro-3-methylpyridin-4-yl)-N-(5-chloro-6-(2H-1,2,3-triazol-2-yl)pyridin-3-yl)-5-(trifluoromethyl)-1H-pyrazole-4-carboxamide], 257 nM; in that of `Cc1cnc(N2CC(O)C2)cc1-n1ncc(C(=O)Nc2cnc(-n3nccn3)c(Cl)c2)c1C(F)(F)F` [Cpd 156, N-(5-chloro-6-(2H-1,2,3-triazol-2-yl)pyridin-3-yl)-1-(2-(3-hydroxyazetidin-1-yl)-5-methylpyridin-4-yl)-5-(trifluoromethyl)-1H-pyrazole-4-carboxamide], 1290 nM.
In the case of `Cc1c(-n2ncc(C(=O)Nc3cnc(-n4nccn4)c(Cl)c3)c2C(F)(F)F)ccnc1N1CC(O)C1` [Cpd 157, N-(5-chloro-6-(2H-1,2,3-triazol-2-yl)pyridin-3-yl)-1-(2-(3-hydroxyazetidin-1-yl)-3-methylpyridin-4-yl)-5-(trifluoromethyl)-1H-pyrazole-4-carboxamide] it was 8130 nM; in that of `Cc1ccnnc1-n1ncc(C(=O)Nc2cnc(-n3nccn3)c(Cl)c2)c1C(F)(F)F` [Cpd 159, N-(5-chloro-6-(2H-1,2,3-triazol-2-yl)pyridin-3-yl)-1-(4-methylpyridazin-3-yl)-5-(trifluoromethyl)-1H-pyrazole-4-carboxamide], 3160 nM.
`Cc1nc(-n2ncc(C(=O)Nc3cnc(-n4nccn4)c(Cl)c3)c2C(F)(F)F)ccc1F` [Cpd 161, N-(5-chloro-6-(2H-1,2,3-triazol-2-yl)pyridin-3-yl)-1-(5-fluoro-6-methylpyridin-2-yl)-5-(trifluoromethyl)-1H-pyrazole-4-carboxamide] showed an IC50 of 741 nM.

(Values after patent US11040031B2, “Pyrazole derivatives as MALT1 inhibitors” (Janssen Pharmaceutica NV, priority 2018, dated 2021).)
